Assay results taken from patent US9233954B2, “Organic amine salts of Azilsartan, preparation method and use thereof” (Jiangsu Hansoh Pharmaceutical Co., Ltd., priority 2011, dated 2016).

Key:
Hygroscopicity test = type: physicochemical; details: 25° C.±1° C., RH 80%±2%, 24 h
Protocol: 1. A dried glass weighing bottle (Outer diameter […]) with a plug was put into an artificial climate box under the temperature of 25° C.±1° C. and relative humidity (RH) of 80%±2% the day before and then weighed precisely (m1).
2. The testing sample was weighed precisely (m2) and lain into the weighing bottle. The thickness of the test sample was about 1 mm.
3. The uncovered weighing bottle and its plug were placed under the above constant temperature and humidity conditions for 24 h.
4. The weighing bottle was covered and weighed precisely (m3).
Calculation formula: Percent of weight increase=(m3−m2)/(m2−m1)*100%
5. Definition of the weight increase of the hygroscopicity
Deliquescence: absorbing enough water to form liquid.
High hygroscopicity: the weight increase of the hygroscopicity is no less than 15%
Having hygroscopicity: the weight increase of the hygroscopicity is between 15% and 2%
Slight hygroscopicity: the weight increase of the hygroscopicity is between 2% and 0.2%
No or almost no hygroscopicity: the weight increase of the hygroscopicity is less than 0.2%

[1] = tested on: blood pressure of SHR rats; experiment: Antihypertensive effect test for spontaneously hypertensive (SHR) rats; type: in vivo; details: 10 mg/kg
Protocol: Antihypertensive Effect Test For Spontaneously Hypertensive (SHR) Rats
38 of 25 week old SHR male rats were randomly divided into 4 groups according to the initial blood pressure, with 6 for the control group (solvent) and 8 for other groups. 10 mg/kg of example 2 compound (Choline Azilsartan), example 4 compound (Azilsartan ethanolamine salts) and control (Azilsartan medoxomil potassium salt) were continuously administered, respectively. The solvent control group was administered solvent. The administration volume was 5 ml/kg and the period was 2 weeks.

CCOc1nc2cccc(C(=O)O)c2n1Cc1ccc(-c2ccccc2-c2noc(=O)[nH]2)cc1.CCOc1nc2cccc(C(=O)[O-])c2n1Cc1ccc(-c2ccccc2-c2noc(=O)[nH]2)cc1.C[N+](C)(C)CCO [Example 2]
Hygroscopicity (percent of weight increase) (Hygroscopicity test): 0.02% | Conclusion (hygroscopic or not) (Hygroscopicity test; listed as Example 2 Compound): No | Conclusion (hygroscopic or not) (Hygroscopicity test; listed as example 2 compound): not hygroscopic | Antihypertensive effect compared with control (Azilsartan medoxomil potassium salt) ([1]; SHR rats, 2 weeks): superior to the antihypertensive effect of control | Antihypertensive effect, ranking under the same dosage ([1]; SHR rats, 2 weeks): optimal | Effect on blood pressure of SHR rats compared with solvent control ([1]; continuously administered for one or two weeks, FIG. 4): reduce the blood pressure of SHR rats significantly
